Laboratory results as given in ChEMBL document CHEMBL5058647, “Data for DCP probe JNJ-9350” (2022).

Assays:
[1] = biological target: T1, Muscarinic acetylcholine receptor M4 (Homo sapiens) (UniProt P08173); conditions: Compound concentration 10.0 uM
T1 sequence (whole entry): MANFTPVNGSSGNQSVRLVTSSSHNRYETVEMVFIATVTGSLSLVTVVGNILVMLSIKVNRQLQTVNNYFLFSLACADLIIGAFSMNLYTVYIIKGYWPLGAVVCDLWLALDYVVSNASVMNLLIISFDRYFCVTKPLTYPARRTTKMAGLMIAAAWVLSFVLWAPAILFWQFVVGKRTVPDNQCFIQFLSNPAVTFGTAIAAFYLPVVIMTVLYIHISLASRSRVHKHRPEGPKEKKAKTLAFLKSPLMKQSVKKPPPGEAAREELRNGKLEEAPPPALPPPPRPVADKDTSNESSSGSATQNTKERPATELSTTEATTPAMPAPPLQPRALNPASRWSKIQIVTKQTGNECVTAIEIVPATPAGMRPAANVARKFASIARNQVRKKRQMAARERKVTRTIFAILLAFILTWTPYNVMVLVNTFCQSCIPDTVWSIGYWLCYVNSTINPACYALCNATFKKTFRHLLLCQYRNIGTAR

[2] = biological target: 5-hydroxytryptamine receptor 1B (Homo sapiens, UniProt P28222); conditions: Compound concentration 10.0 uM
[3] = biological target: Sodium-dependent serotonin transporter (Homo sapiens) (UniProt P31645); conditions: Compound concentration 10.0 uM
[4] = biological target: T2, Kappa-type opioid receptor (Homo sapiens, UniProt P41145); conditions: Compound concentration 10.0 uM
[5] = biological target: Alpha-1A adrenergic receptor (Homo sapiens) (UniProt P35348); conditions: Compound concentration 10.0 uM
[6] = biological target: Muscarinic acetylcholine receptor M5 (Homo sapiens) (UniProt P08912); conditions: Compound concentration 10.0 uM
[7] = biological target: Histamine H4 receptor (Homo sapiens) (UniProt Q9H3N8); conditions: Compound concentration 10.0 uM
[8] = biological target: T2, Kappa-type opioid receptor; test: GPCRScan assay: inhibition of KOR; set-up: radioligand conc. used [nm] 0.6 – 1.2, parental cells stable HEK
[9] = biological target: Muscarinic acetylcholine receptor M3 (Homo sapiens) (UniProt P20309); conditions: Compound concentration 10.0 uM
[10] = biological target: D(1A) dopamine receptor (Homo sapiens) (UniProt P21728); conditions: Compound concentration 10.0 uM
[11] = biological target: Beta-2 adrenergic receptor (Homo sapiens) (UniProt P07550); conditions: Compound concentration 10.0 uM
[12] = biological target: 5-hydroxytryptamine receptor 3A (Homo sapiens) (UniProt P46098); conditions: Compound concentration 10.0 uM
[13] = biological target: 5-hydroxytryptamine receptor 1D (Homo sapiens, UniProt P28221); conditions: Compound concentration 10.0 uM
[14] = biological target: Sodium-dependent dopamine transporter (Homo sapiens, UniProt Q01959); conditions: Compound concentration 10.0 uM
[15] = biological target: D(4) dopamine receptor (Homo sapiens) (UniProt P21917); conditions: Compound concentration 10.0 uM
[16] = biological target: Muscarinic acetylcholine receptor M2 (Homo sapiens) (UniProt P08172); conditions: Compound concentration 10.0 uM
[17] = biological target: Delta-type opioid receptor (Homo sapiens) (UniProt P41143); conditions: Compound concentration 10.0 uM
[18] = biological target: 5-hydroxytryptamine receptor 1E (Homo sapiens) (UniProt P28566); conditions: Compound concentration 10.0 uM
[19] = biological target: 5-hydroxytryptamine receptor 5A (Homo sapiens) (UniProt P47898); conditions: Compound concentration 10.0 uM
[20] = biological target: 5-hydroxytryptamine receptor 2A (Homo sapiens) (UniProt P28223); conditions: Compound concentration 10.0 uM
[21] = biological target: 5-hydroxytryptamine receptor 2C (Homo sapiens) (UniProt P28335); conditions: Compound concentration 10.0 uM
[22] = biological target: Alpha-1B adrenergic receptor (Homo sapiens) (UniProt P35368); conditions: Compound concentration 10.0 uM
[23] = biological target: Alpha-2A adrenergic receptor (Homo sapiens) (UniProt P08913); conditions: Compound concentration 10.0 uM
[24] = biological target: Histamine H3 receptor (Homo sapiens) (UniProt Q9Y5N1); conditions: Compound concentration 10.0 uM
[25] = biological target: 5-hydroxytryptamine receptor 2B (Homo sapiens, UniProt P41595); conditions: Compound concentration 10.0 uM
D(3) dopamine receptor = D(3) dopamine receptor (Homo sapiens, UniProt P35462); conditions: Compound concentration 10.0 uM
[26] = biological target: Beta-1 adrenergic receptor (Homo sapiens) (UniProt P08588); conditions: Compound concentration 10.0 uM
[27] = biological target: Muscarinic acetylcholine receptor M1 (Homo sapiens) (UniProt P11229); conditions: Compound concentration 10.0 uM
[28] = GPCRScan assay: inhibition of GABA/PBR; set-up: species or system Rattus norvegicus; radioligand conc. used [nm] 0.3 – 2.0, parental cells brain tissue
[29] = biological target: Sigma intracellular receptor 2 (Homo sapiens, UniProt Q5BJF2); conditions: Compound concentration 10.0 uM
[30] = biological target: D(1B) dopamine receptor (Homo sapiens) (UniProt P21918); conditions: Compound concentration 10.0 uM
Rattus norvegicus = species: Rattus norvegicus; conditions: Compound concentration 10.0 uM
[31] = biological target: 5-hydroxytryptamine receptor 1A (Homo sapiens) (UniProt P08908); conditions: Compound concentration 10.0 uM
[32] = biological target: Mu-type opioid receptor (Homo sapiens) (UniProt P35372); conditions: Compound concentration 10.0 uM
[33] = biological target: Beta-3 adrenergic receptor (Homo sapiens) (UniProt P13945); conditions: Compound concentration 10.0 uM
[34] = biological target: Histamine H2 receptor (Homo sapiens) (UniProt P25021); conditions: Compound concentration 10.0 uM
[35] = biological target: Peroxisomal N(1)-acetyl-spermine/spermidine oxidase (Homo sapiens, UniProt Q6QHF9); test: HyPerBlu POAX enzymatic assay
[36] = biological target: Histamine H1 receptor (Homo sapiens) (UniProt P35367); conditions: Compound concentration 10.0 uM
[37] = biological target: 5-hydroxytryptamine receptor 7 (Homo sapiens) (UniProt P34969); conditions: Compound concentration 10.0 uM
[38] = biological target: D(2) dopamine receptor (Homo sapiens) (UniProt P14416); conditions: Compound concentration 10.0 uM
[39] = biological target: Sigma non-opioid intracellular receptor 1 (Homo sapiens) (UniProt Q99720); conditions: Compound concentration 10.0 uM
[40] = biological target: Sodium-dependent noradrenaline transporter (Homo sapiens) (UniProt P23975); conditions: Compound concentration 10.0 uM

T2 sequence (P41145 whole entry): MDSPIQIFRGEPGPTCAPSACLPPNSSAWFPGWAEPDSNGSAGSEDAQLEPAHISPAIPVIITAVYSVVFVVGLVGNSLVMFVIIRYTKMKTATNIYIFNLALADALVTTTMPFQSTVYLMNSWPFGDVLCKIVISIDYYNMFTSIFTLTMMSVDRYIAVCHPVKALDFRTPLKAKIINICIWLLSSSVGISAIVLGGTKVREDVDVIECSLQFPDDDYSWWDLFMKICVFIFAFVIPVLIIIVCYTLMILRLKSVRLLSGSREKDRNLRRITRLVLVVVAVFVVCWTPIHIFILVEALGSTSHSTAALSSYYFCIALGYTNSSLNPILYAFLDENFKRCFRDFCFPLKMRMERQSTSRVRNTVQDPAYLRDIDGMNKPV
Sequence of Histamine H4 receptor (Homo sapiens) (Q9H3N8 whole entry): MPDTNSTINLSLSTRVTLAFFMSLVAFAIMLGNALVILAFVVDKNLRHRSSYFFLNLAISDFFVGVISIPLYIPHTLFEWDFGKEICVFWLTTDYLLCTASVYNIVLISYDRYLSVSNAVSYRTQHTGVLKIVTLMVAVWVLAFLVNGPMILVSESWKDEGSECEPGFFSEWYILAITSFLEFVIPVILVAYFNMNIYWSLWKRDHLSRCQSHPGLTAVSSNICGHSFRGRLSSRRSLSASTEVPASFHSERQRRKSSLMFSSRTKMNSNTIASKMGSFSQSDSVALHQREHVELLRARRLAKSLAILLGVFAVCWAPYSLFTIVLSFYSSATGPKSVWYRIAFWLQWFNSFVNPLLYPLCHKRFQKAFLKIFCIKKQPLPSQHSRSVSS
Sequence of 5-hydroxytryptamine receptor 1A (Homo sapiens) (P08908 whole entry): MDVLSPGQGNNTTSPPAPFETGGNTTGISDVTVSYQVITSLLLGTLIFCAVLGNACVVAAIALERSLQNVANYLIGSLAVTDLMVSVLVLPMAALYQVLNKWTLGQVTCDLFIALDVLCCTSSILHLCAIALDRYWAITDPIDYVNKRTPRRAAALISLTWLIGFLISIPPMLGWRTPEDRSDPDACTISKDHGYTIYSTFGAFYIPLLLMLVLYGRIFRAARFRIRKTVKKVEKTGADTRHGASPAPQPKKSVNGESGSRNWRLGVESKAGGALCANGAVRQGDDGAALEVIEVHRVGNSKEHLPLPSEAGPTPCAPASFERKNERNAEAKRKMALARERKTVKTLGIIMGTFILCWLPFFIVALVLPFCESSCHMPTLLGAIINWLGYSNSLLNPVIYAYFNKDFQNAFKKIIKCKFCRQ
Sequence of Beta-3 adrenergic receptor (Homo sapiens) (P13945 whole entry, looked up): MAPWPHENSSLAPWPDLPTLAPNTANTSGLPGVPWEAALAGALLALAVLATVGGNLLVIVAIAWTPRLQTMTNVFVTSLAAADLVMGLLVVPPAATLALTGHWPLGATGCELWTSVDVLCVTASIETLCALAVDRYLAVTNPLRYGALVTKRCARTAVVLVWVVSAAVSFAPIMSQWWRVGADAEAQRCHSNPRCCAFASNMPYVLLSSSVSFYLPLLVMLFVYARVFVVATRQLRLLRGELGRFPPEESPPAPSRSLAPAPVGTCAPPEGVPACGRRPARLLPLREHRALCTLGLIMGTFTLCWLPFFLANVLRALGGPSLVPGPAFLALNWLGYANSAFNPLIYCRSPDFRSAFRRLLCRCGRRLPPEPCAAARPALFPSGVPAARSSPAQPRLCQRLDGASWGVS
Sequence of Beta-1 adrenergic receptor (Homo sapiens) (P08588 whole entry, looked up): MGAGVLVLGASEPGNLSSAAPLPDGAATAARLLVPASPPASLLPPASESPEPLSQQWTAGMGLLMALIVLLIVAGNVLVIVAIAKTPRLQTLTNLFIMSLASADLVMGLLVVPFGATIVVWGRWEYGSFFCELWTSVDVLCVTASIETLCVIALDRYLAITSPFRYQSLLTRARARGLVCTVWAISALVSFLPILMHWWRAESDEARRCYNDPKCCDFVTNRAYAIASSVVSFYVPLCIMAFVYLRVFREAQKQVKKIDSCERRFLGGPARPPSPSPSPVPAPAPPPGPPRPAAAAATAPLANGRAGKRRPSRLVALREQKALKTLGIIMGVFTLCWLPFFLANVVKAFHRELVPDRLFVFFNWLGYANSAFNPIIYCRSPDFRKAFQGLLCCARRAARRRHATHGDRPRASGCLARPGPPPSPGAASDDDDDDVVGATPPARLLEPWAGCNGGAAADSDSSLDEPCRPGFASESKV
Sequence of D(4) dopamine receptor (Homo sapiens) (P21917 whole entry): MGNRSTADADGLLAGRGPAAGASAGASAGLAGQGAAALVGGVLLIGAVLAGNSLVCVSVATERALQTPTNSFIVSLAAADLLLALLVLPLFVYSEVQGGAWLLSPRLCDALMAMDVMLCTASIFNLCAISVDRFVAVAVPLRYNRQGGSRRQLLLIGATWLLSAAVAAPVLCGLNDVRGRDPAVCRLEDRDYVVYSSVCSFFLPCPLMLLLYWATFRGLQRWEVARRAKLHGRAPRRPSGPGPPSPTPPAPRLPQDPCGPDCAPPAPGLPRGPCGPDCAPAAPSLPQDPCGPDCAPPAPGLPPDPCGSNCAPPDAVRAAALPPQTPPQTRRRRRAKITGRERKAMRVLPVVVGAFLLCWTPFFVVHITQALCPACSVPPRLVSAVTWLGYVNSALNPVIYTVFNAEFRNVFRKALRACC
Sequence of Sodium-dependent dopamine transporter (Q01959 whole entry): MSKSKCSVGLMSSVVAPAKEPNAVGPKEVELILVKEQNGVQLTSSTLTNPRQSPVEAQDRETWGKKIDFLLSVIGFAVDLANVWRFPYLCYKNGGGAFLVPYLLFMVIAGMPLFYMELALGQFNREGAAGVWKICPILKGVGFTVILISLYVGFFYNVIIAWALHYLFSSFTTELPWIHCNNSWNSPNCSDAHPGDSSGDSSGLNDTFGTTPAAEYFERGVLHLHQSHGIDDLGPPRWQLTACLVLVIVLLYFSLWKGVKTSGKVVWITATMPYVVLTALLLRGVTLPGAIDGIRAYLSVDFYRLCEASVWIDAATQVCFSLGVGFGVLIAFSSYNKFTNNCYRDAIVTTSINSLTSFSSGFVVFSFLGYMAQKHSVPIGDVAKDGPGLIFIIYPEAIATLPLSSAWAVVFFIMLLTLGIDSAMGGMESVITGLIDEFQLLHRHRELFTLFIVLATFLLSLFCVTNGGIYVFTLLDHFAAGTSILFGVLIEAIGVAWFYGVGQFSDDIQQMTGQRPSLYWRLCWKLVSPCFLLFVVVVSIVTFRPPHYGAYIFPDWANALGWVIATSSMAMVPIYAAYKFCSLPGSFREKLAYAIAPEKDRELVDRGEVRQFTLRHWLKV
Sequence of Mu-type opioid receptor (Homo sapiens) (P35372 whole entry): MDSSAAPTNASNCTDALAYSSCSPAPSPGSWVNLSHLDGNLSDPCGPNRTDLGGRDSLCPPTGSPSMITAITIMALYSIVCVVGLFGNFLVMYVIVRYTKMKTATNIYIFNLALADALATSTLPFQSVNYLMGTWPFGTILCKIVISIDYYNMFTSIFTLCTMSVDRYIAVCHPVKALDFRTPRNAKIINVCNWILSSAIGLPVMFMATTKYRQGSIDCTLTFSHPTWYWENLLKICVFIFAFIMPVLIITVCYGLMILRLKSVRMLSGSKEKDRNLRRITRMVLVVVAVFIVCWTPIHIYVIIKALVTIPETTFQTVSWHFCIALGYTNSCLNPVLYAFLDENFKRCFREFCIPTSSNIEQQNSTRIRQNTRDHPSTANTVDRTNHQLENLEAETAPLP
Sequence of 5-hydroxytryptamine receptor 1B (P28222 whole entry): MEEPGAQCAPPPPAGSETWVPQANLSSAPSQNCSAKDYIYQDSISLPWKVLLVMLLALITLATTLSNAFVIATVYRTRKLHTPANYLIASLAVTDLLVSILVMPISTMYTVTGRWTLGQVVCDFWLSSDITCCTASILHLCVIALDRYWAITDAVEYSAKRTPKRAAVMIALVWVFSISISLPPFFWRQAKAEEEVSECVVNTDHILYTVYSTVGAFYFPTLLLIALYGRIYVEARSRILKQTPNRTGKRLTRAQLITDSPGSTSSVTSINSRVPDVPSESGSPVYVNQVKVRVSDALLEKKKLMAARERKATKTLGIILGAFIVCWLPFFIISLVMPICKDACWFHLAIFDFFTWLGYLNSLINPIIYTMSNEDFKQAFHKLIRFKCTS
Sequence of 5-hydroxytryptamine receptor 5A (Homo sapiens) (P47898 whole entry): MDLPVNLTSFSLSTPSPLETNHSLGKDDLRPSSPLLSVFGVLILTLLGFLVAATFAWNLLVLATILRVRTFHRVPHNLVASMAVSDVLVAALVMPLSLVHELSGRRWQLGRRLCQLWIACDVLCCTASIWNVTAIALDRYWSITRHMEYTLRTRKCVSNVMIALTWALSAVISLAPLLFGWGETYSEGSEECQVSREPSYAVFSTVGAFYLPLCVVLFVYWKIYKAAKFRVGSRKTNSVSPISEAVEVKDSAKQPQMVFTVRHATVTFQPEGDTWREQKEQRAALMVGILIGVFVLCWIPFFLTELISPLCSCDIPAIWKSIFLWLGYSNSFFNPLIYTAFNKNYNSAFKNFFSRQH
Sequence of D(3) dopamine receptor (P35462 whole entry): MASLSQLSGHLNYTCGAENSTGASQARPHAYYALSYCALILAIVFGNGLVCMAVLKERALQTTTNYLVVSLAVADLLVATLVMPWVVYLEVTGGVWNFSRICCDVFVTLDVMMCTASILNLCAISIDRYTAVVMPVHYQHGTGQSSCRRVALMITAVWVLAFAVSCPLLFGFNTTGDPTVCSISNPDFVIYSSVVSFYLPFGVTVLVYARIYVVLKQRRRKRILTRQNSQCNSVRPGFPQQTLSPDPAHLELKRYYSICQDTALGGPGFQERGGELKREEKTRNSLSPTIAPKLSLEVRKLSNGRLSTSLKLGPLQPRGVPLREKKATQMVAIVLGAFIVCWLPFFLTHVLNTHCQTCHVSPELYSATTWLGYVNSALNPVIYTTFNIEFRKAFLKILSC
Sequence of Sigma intracellular receptor 2 (Q5BJF2 whole entry): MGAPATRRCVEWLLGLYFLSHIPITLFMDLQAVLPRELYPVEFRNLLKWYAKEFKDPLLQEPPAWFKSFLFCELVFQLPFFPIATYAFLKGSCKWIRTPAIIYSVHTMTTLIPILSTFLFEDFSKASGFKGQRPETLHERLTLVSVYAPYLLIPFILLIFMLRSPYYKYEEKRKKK

## O=C(NCCCn1ccnc1)c1cc2nc(-c3ccccc3)cc(-c3ccccc3)n2n1
[1]
  inhibition: 36.6%
[2]
  inhibition: 104%
[3]
  inhibition: 16.6%
[4]
  inhibition: 73.3%
[5]
  inhibition: 3.52%
[6]
  inhibition: 37.9%
[7]
  inhibition: 32.6%
[8]
  Ki: 1170 nM
[9]
  inhibition: 32%
[10]
  inhibition: 28.9%
[11]
  inhibition: -4.5%
[12]
  inhibition: 25.6%
[13]
  inhibition: 101%
[14]
  inhibition: 47.7%
[15]
  inhibition: 20.9%
[16]
  inhibition: 24.3%
[17]
  inhibition: 17.1%
[18]
  inhibition: 0.95%
[19]
  inhibition: 17.5%
[20]
  inhibition: 27.4%
[21]
  inhibition: 28.4%
[22]
  inhibition: 10.2%
[23]
  inhibition: 64%
[24]
  inhibition: -7.55%
[25]
  inhibition: 57.9%
D(3) dopamine receptor
  inhibition: 40.5%
[26]
  inhibition: 2.96%
[27]
  inhibition: 24.8%
[28]
  Ki: 498 nM
  pKi: 6.3
[29]
  inhibition: 76.7%
[30]
  inhibition: 20.4%
Rattus norvegicus
  inhibition: 114%
[31]
  inhibition: 13.1%
[32]
  inhibition: 24.8%
[33]
  inhibition: -7.92%
[34]
  inhibition: 26.9%
[35]
  IC50: 790 nM (not active)
[36]
  inhibition: 4.87%
[37]
  inhibition: 8.26%
[38]
  inhibition: 25.3%
[39]
  inhibition: 30.5%
[40]
  inhibition: 46%

## CC(=O)Nc1ccc(-c2cc(-c3ccccc3)nc3cc(C(=O)NCCCn4ccnc4)nn23)cc1
[1]
  inhibition: 51.6%
[2]
  inhibition: 38.4%
[3]
  inhibition: 12.9%
[4]
  inhibition: 90.7%
[5]
  inhibition: -7.41%
[6]
  inhibition: 30.3%
[7]
  inhibition: 27.9%
[8]
  Ki: 198 nM
[9]
  inhibition: 33.5%
[10]
  inhibition: 22.7%
[11]
  inhibition: -7.96%
[12]
  inhibition: 16.2%
[13]
  inhibition: 48.5%
[14]
  inhibition: 79.9%
[15]
  inhibition: 89.3%
[16]
  inhibition: 46.1%
[17]
  inhibition: 49.3%
[18]
  inhibition: 15.1%
[19]
  inhibition: 6.76%
[20]
  inhibition: 17.8%
[21]
  inhibition: 7.86%
[22]
  inhibition: 75.3%
[23]
  inhibition: 28.1%
[24]
  inhibition: 6.04%
[25]
  inhibition: 17.5%
D(3) dopamine receptor
  inhibition: 90%
[26]
  inhibition: 4.27%
[27]
  inhibition: 18.5%
[28]
  Ki: 306 nM
  pKi: 6.51
[29]
  inhibition: 25.4%
[30]
  inhibition: 15%
Rattus norvegicus
  inhibition: 96.6%
[31]
  inhibition: 16.5%
[32]
  inhibition: 25.4%
[33]
  inhibition: -5.81%
[34]
  inhibition: 10.8%
[35]
  IC50: 2100 nM (not active)
[36]
  inhibition: 14.9%
[37]
  inhibition: 0.12%
[38]
  inhibition: 32.2%
[39]
  inhibition: 21.2%
[40]
  inhibition: 49.4%
